What was measured:
Type in all cases: cell-based
[1] = target: T1, B16 melanocytes' tyrosinase (Mus musculus, UniProt P11344); experiment: Inhibition rate of B16 melanocytes' tyrosinase activity (L-dopa oxidation, OD 475 nm); conditions: 3 days, n = 6
T1 construct: The cells were dissolved by 1% Troton X-100; host or cells: B16 melanocytes (melanoma cells)
T1 sequence (P11344 19-533): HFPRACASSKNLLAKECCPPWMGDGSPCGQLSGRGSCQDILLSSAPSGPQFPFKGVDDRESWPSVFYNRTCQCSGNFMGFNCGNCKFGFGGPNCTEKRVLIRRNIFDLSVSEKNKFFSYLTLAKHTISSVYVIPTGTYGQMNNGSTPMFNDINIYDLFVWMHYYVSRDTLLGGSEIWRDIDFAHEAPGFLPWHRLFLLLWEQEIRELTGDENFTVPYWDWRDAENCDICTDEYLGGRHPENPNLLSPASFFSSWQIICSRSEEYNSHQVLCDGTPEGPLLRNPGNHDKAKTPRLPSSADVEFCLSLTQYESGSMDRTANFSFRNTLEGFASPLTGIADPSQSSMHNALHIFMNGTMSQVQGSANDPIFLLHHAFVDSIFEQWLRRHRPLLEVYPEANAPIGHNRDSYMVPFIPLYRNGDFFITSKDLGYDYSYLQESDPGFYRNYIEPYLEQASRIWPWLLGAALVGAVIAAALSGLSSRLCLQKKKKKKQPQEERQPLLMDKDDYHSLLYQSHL
Description: (§1) B16 melanocytes(from SIBCB) were cultivated with RPMI-1640 culture fluid containing 10% newborn calf serum and penicillium—streptomycin under the condition of about 37° C., 5% CO2. The melanocytes were digested with about 0.125% trypsin (Difco, US) to be passaged or tested when the cell fusion reached more than 80%.
Tyrosinase activity is determined by the speed of dopa being oxidized into dopaquinone. L-dopa was used as catalysis substrate. Optical density (OD) of dopaquinone was determined at 475 nm by improved Marlinez-Esparza method. (Ando H, Itoh A, Mishima Y et al., Correlation between the number of melanosomes, tyrosinase mRNA levels, and tyrosinase activity cultured murine melanoma cells in response to various melanogenesis regulatory agents. J Cell Physiol, 1995, 163: 608-614.). The higher of the OD, the stronger of the tyrosinase.
The lingonberry extract III was prepared by the method in example 3, other materials were all bought from market.
After 3 days of effects of tested substance, the supernatant was deserted and the remainder was washed for 3 times with pH 7.0 PBS after centrifuging at 1000 rpm for 5 min every time. The cells were dissolved by 1% Troton X-100 400 μl adding in every well of the cultured plate. 100 μl solution in every well was taken and then added into 96-well cultured plate. After pre-temperature at 37° C., 100 μl 1.7% L-dopa (sigma, US) was added into every well. The OD A value then was determined every 10 min within 1 hour at 475 nm and 37° C., using blank as zero adjustment.
Calculated every tested agents' inhibition rate of B16 melanocytes' tyrosinase activity using the following formula: inhibition rate of melanocytes' tyrosinase activity=(1−OD of tested group/OD of control group)*100%
Experiment method was the same as example 6. The lingonberry extract I, II and III used as tested substance were prepared by the method in example 1, 2 and 3 respectively.

[2] = system: B16 melanocytes; experiment: Inhibition rate of melanin content (melanogenesis) in B16 melanocytes; conditions: Melanocyte, 72 hours, n = 4
Description: as §1, with “containing about” for “containing”, “of” for “of about”, “than about” for “than”
After the cells dissolved in strong base solution, melanin was dissolved and then the OD was tested. Melanin content was determined by Hosoi improved method. (Victoria M, Virador, Nobuhiko Kobayashi et al, A standardized protocol for assessing regulators of pigmentation. Analytical Biochemistry, 1999, 270:207˜219.)
B16 melanocytes (1×10^5) were cultivated in 6-well cultured plate. After 24 hours incubation the solution was changed and different kinds of tested substances in different concentration were added respectively. The lingonberry extract III was prepared by the method in example 3, other substances were all bought from market.
After 72 hours, reactants were washed by PBS for 2 times, dried by air-drying, dissolved into 400 μl 1N NaOH (containing 1% DMSO), heated at 80° C. for 1 hour and then cooled. The OD was tested by enzyme-linked immunosorbent assay instrument at 475 nm.
Calculated every tested agents' inhibition rate of melanin content using the following formula: inhibition rate of melanin content=[1−(OD of tested group/well cell density of tested group)/(OD of control group/well cell density of control group)]*100%
Experiment method was the same as example 7. The lingonberry extract I, II and III used as tested substance were prepared by the method in example 1, 2 and 3 respectively.

[3] = system: B16 melanocytes; experiment: MTT cell multiplication / cell survival ratio of B16 melanocytes; conditions: blank = 100, n = 6
Description: B16 melanocytes (from SIBCB) were cultivated with RPMI-1640 culture fluid containing about 10% newborn calf serum and penicillium—streptomycin under the condition of about 37° C., about 5% CO2. Digest the melanocytes with about 0.125% trypsin (Difco, US) when the cell fusion reached more than about 80%.
The activity of melanocytes multiplication was determined by measurement of […] (MTT). The B16 melanocytes at densities of about 1×10^5 were inoculated in 24-well cell cultured plate. The culture fluid was changed next day and the tested substances in different concentration were added individually: the lingonberry extract III prepared in example 3 (comprised anthocyanidin about 10%, OPC about 35% and resveratrol about 10%), arbutin bought from the market, and blank as control group.
After 20 hours cultivation and adding about 0.15 ml MTT, the cells were cultivated continuously for about 4 hours. Centrifuged at 3000 rpm for about 10 min and deserted the supernatant, cultivated cells in every well were added DMSO (about 1%) about 1 ml and shook for dissolving thoroughly. Then about 150 μl cultivated cells aspiration were added into 96-well cell cultured plate. The OD value of the aspiration was measured with MQX200 micro-plate spectrophotometer (Bio-Tek, US), at 570 nm excitation wave length and 630 nm reference wave length.
Calculated the inhibition ratio of tested agents on melanocytes using the following formula: melanocytes multiplication inhibition ratio=(1−OD of tested group/OD of control group)*100%
The experimental method was the same as example 4. The lingonberry extract III was prepared by the method in example 3, pine bark extract and grape seed extract were both bought from market, blank was used as control group.

inhibition at 1 µg/mL ([1]; 1 mg/L): 7.19% | inhibition at 5 µg/mL ([1]; 5 mg/L): 10.4 ± 2.97% | inhibition at 10 µg/mL ([1]; 10 mg/L): 20.5 ± 1.63% | inhibition at 20 µg/mL ([1]; 20 mg/L): 46.4 ± 2.53% | inhibition at 30 µg/mL ([1]; 30 mg/L): 53.3 ± 2.27%
Structure (SMILES): OC[C@H]1O[C@@H](Oc2ccc(O)cc2)[C@H](O)[C@@H](O)[C@@H]1O [arbutin]
inhibition at 1 µg/mL ([2]; 1 mg/L): 7.27 ± 2.29% | inhibition at 5 µg/mL ([2]; 5 mg/L): 7.59 ± 0.35% | inhibition at 10 µg/mL ([2]; 10 mg/L): 6.23 ± 0.86% | inhibition at 20 µg/mL ([2]; 20 mg/L): 10.8 ± 0.33% | inhibition at 30 µg/mL ([2]; 30 mg/L): 12.1 ± 1.3% | cell survival ratio ([3]; 20 mg/L): 110.72 ± 0.41% | cell survival ratio ([3]; 40 mg/L): 94.30 ± 0.45% | cell survival ratio ([3]; 60 mg/L): 91.74 ± 0.39% | cell survival ratio ([3]; 80 mg/L): 79.66 ± 1.08%
